Values of other authors as cited in patent publication US6458974B1, “Synthesis of β-lapachone and its intermediates” (Cyclis Pharmaceuticals, Inc., priority 2001, dated 2002).

Columns and labels:
[1] = system: human cancer cell lines; conditions: single agent, concentrations typically in this range, read-out: antineoplastic activity (IC50)
[2] = system: normal fresh or proliferating human PBMC

In the case of `CC1(C)CCC2=C(O1)c1ccccc1C(=O)C2=O` [β-lapachone, 3,4-dihydro-2,2-dimethyl-2H-naphtho[1,2-b]pyran-5,6-dione], the IC50 [1] is given as 1 to 10 µM and the cytotoxic effects [2] is given as “No cytotoxic effects”.
